Measurements taken from patent US9340532B2, “Methods and compositions for inhibiting CNKSR1” (PHUSIS THERAPEUTICS, INC., priority 2012, dated 2016).
“Also recorded” adds a separate entry of the source. Where two headings read alike, the source gives them in different places.

Key:
[1] = system: mut-KRAS NSCLC cell lines; test: Screening against NSCLC cell line panel, mut-KRAS lines; type: cell-based
Description: The isogenic KRAS lines harboring G12D, G12C, and G12V were obtained from Horizon Discovery labs on a one year lease. These cells were cultured in McCoys media with 10% FBS to 80% confluency. Cells were then released from flasks via trypsinization and plated into 96-well plates at an initial density range of 2000 cells per well. Cells were allowed 24 hours to attach, and then the agents were added to the culture media at a range of concentrations from 0-100 μM. Cells were incubated for 72 hours with the drugs, and then viability was assessed using an MTS viability assay. Cells were exposed to MTS reagent (Promega) dissolved in PBS (Hyclone) at a concentration of 200 μL reagent/mL media for 2 hours. Absorbance was then read at 490 nm, and viability was expressed as a percentage normalized between the negative control (no cells plated) and the condition of cells with no drug added (100% viability) normalized as the upper limit of viability.
Our panel of 30 cell lines and an extensive characterization were obtained from Dr. John Minna (UTSW). All cell lines were cultured in RPMI 1640 with 10% FBS. Cells were treated with concentrations of agents at concentrations 0.01 to 50 μM and evaluated as described above. IC50's were determined using Excelfit.

CNK1 PH-domain (CNKSR1) = target: T1, CNK1 PH-domain (CNKSR1) (Homo sapiens, UniProt Q969H4); test: SPR binding assay (Biacore T100), CNK1 PH-domain
T1 construct: The PH-domain His-fusion proteins (CNK1 and AKT1) were expressed and immobilized on a NTA chip; made in house
T1 sequence (Q969H4 403-502 limits assumed): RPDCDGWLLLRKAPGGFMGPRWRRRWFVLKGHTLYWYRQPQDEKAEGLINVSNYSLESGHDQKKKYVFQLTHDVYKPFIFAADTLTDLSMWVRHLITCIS
Outline: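 His-tagged CNK1 PH-domain was captured on an NTA chip to ≤10,000 RU. Small-molecule analytes were injected at 50 μM to 0.010 μM at 30 μL/min, with 1-5% (v/v) DMSO in samples and running buffer. Binding was measured by surface plasmon resonance.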

[2] = Stability in biological media: human plasma; type: in vitro ADME; settings: 50 μg/ml, 37° C.
PH-domain of AKT = target: T2, PH-domain of AKT (Homo sapiens, UniProt P31749); test: SPR binding to expressed PH-domain of AKT
T2 construct: made in house
T2 sequence (P31749 5-108 limits assumed): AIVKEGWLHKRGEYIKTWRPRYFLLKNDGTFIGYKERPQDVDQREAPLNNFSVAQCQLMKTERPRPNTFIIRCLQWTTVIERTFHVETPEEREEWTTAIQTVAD
Description: In embodiments, the binding of identified compounds to the crystal structures of other PH-domain signaling proteins, AKT, PDPK1, Btk, and Tiam1 can be predicted. In such embodiments, the Kds exceed about 100 μM. In other embodiments, SPR can measure the binding of identified compounds to the expressed PH-domains of AKT, PDPK1 and Tiam1. […] Thus, the identified compounds appear have, at least, about 50 to about 100 fold selectivity for CNKSR1 compared to the other PH-domains studied.
A commercially available docking package, GOLD (GOLD [3.2], CCDC: Cambridge, UK, 2007) was used to evaluate the docking of compounds 1-7 into the binding pocket, see e.g. Table 5. Other docking was performed using modeling algorithms with state-of-the-art commercial drug discovery software (Schrodinger suite). GLIDE was chosen as the docking algorithm used to select and optimize compounds, providing a GlideScore as a rough estimate of binding affinity that was used to rank and select the best compounds. Additionally, ligand-based approaches provided an alternative to structure based drug discovery. Ligand-based virtual screening methodologies can take into account shape and electrostatics (like ROCS) and the pharmacophoric features (acceptor, donor, hydrophobic, aromatic, etc.) of its functional groups. […]

AKT1 PH-domain = target: T3, AKT1 PH-domain (Homo sapiens, UniProt P31749); test: SPR binding assay (Biacore T100), AKT1 PH-domain; settings: Table 6; read-out: AKT KD
T3 construct: The PH-domain His-fusion proteins (CNK1 and AKT1) were expressed and immobilized on a NTA chip; made in house
T3 sequence (P31749 5-108 limits assumed): as above
Outline: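 His-tagged AKT1 PH domain immobilized on NTA chip to ≤10,000 RU, Biacore T100. Small-molecule analytes injected at 50 μM to 0.010 μM, 30 μL/min, with 1-5% (v/v) DMSO in samples and running buffer.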

[3] = system: A549 (KRAS mutant cell line); test: Proliferation Assay A549; type: cell-based; settings: Homo sapiens, N = 2 experiments
Outline: (§1)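 Cells plated 2000 per well, allowed 24 h to attach, then exposed 72 h to agents (0-100 μM for isogenic lines; 0.01 to 50 μM for the RPMI 1640/10% FBS-cultured 30-line NSCLC panel). MTS read at 490 nm after 2 h, normalized to no-cell and no-drug controls; IC50 from curve fitting.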

rHuman carboxyesterase 2 = target: T4, rHuman carboxyesterase 2 (Homo sapiens, UniProt O00748); test: Stability with carboxyesterase 2; type: in vitro ADME; settings: rHuman carboxyesterase 2 24 U/ml, pH 7.4, 37° C.
T4 sequence (O00748 27-559): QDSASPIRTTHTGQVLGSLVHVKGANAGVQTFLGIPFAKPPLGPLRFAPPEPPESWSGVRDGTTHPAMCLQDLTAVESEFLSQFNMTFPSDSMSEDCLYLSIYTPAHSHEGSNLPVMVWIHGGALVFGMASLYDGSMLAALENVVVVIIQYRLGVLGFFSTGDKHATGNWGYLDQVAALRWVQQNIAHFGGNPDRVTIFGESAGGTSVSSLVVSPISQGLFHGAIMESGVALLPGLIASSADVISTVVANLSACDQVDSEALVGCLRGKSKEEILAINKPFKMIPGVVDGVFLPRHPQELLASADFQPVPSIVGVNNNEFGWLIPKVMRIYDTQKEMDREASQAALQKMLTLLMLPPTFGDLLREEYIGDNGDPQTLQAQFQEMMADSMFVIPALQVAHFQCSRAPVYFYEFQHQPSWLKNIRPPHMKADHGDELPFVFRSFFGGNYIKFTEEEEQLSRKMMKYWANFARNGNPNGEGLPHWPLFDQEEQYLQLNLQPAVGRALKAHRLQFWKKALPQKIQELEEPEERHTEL

[4] = system: H1975 (KRAS wildtype cell line); test: Proliferation Assay H1975; type: cell-based; settings: Homo sapiens, NCI-H1975, n = 1
Outline: as §1

IC50 ([1]; Table 5, read-out: Mean IC50 mut-KRAS): 23.9 ± 2.5 µM
Kd (CNK1 PH-domain (CNKSR1); Table 6, read-out: CNKS KD): 3.2 µM
Surface Plasmon Resonance CNKSR1 binding (RU max) (CNK1 PH-domain (CNKSR1); date 11 26 13): 5.019 RU * 100/Da
Surface Plasmon Resonance CNKSR1 stability (RU max post-injection) (CNK1 PH-domain (CNKSR1); date 11 26 13): 0.761 RU * 100/Da
Surface Plasmon Resonance CNKSR1 binding (RU max) (CNK1 PH-domain (CNKSR1); date 12 09 13): 0.205 RU * 100/Da
Surface Plasmon Resonance CNKSR1 stability (RU max post-injection) (CNK1 PH-domain (CNKSR1); date 12 09 13): 0.798 RU * 100/Da
Half life [2]: stable
Half life ([2]; listed as #7): completely stable
SPR binding to PH-domain of AKT (PH-domain of AKT): No measurable binding
Kd (AKT1 PH-domain): 17.3 µM
IC50 [3]: 15 µM
Half life (rHuman carboxyesterase 2): 1.65 h
IC50 [4]: 45 µM
Structure (SMILES): CCOC(=O)Cc1nn(Cc2nc(-c3ccc(C)cc3)cs2)c(=O)c2ccccc12 [Compound 7]
inhibition of mut-KRAS cell growth (in words) ([1]; FIG. 3 and FIG. 5): low micromolar inhibition; also recorded: as effectively as siRNA to KRAS or CNKSR1
IC50 ([1]; Table 6, mean of 3 mut-KRAS lines, read-out: NSCL cell line cytotoxicity IC50 mut-KRAS): 49 µM
